According to patent US6503943B1, “Platinum complex, its preparation and therapeutic application” (priority 1998, dated 2003):
Values joined by “and” are separate entries in the source; they are usually repeats but may differ in a detail not shown here. Identical values can stand only once.

What was measured:
leucaemia L1210 [1] = experiment: Antitumor effect at animals with leucaemia L1210, intermitent administration 3x (Example 5); format: in vivo, mice DBA2; conditions: for Survival (in % of control) / Survival time, Geom. mean: 1st, 5th and 9th day
[2] = tested on: mammal adenocarcinoma MC2111; experiment: Antitumor effect at animals with solid form of mammal adenocarcinoma MC2111 (Example 9); format: in vivo, mice DBA1; conditions: for Tumor mass (%) of control / Tumor mass, Arithm. mean: tumor size 14th day, mass from regression
leucaemia L1210 [3] = experiment: Antitumor effect at animals with leucaemia L1210, continual versus intermitent regimen (Example 6); format: in vivo, mice DBA2
Gardner lymphosarcoma = experiment: Antitumor effect at animals with solid form of Gardner lymphosarcoma (Example 8); format: in vivo, mice C3H; conditions: 5th day, tumors weighed 14th day
leucaemia L1210 [4] = experiment: Antitumor effect at animals with leucaemia L1210, single administration (Example 4); format: in vivo, mice DBA2; conditions: mouse, in vivo
[5] = tested on: ascitic form of Ehrlich tumor (ATE); experiment: Antitumor effect at animals with ascitic form of Ehrlich tumor (ATE) (Example 11);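 for all read-outs here: half of each dose group killed on day 10, tumor mass taken as animal mass lost on ascites aspiration, ascitocrit by microhematocrit centrifuge, rest followed daily for survival versus reference group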; conditions: for Survival (in % of control) / Survival time, Geom. mean / Total ascitocrit (%) of control / Total ascitocrit (mass of cell fraction of a tumor), Arithm. mean / Tumor mass (%) of control / Tumor mass, Arithm. mean: 1th-9th day; for Total ascitocrit (%) of control / Total ascitocrit (mass of cell fraction of a tumor), Arithm. mean / Tumor mass (%) of control / Tumor mass, Arithm. mean: dissection 10th day; for Evaluation of antitumor effect (survival time versus control), in words: p.o.×9, Platidiam 8 and 4 mg/kg s.c.×1, Tab. 8.1
Experimental: After termination of application, one half of animals in each dosage group was destroyed at 10th day after inoculation in ether narcosis, the ascits were sucked out after laparotomy and the mass of a tumor at each of the animals was determined from the difference of mass before and after sucking out the ascit. Ascitocrit in ascitic liquor of single animals was determined on microhematocrit centrifuge in heparinized capillary tubes of 75 mm length. The value of “total ascitocrit”corresponding to a mass of cells in ascitic liquor has been determined from percentage of ascitocrit and mass of the tumor. Remaining animals were left for monitoring the survival time. In these animals, the survival time was monitored on daily basis. The dependence of the survival time value on the applied dose was evaluated in comparison with the reference group.
The single estimated time points as biological responses were evaluated by a test of equivalence of two mean values (Student's t-test). Geometric mean was calculated from single values of survival time, arithmetic means were calculated from single values of tumor mass and total ascitocrit. Difference between mean values was evaluated by a test of equivalence of two mean values (Student's t-test) under presumption of normal probability distribution of mass values as well as of total ascitocrit values and of logarithmic/normal distribution of temporal values, all under presumption of possible unknown disseminations. Those diferences in mean values, whose values of a test criterium exceeded the critical value at the 5% and 1% significance level were evaluated as statistically significant and highly statistically significant, respectively.
The optimum dosage has been calculated from values of survival time according to the proportional risk model of Cox (Carter et al., 1982). Parameters of Weinbull distribution and logarithmic transformation of introductory data were used for estimation of a basic and modified survival function from experimental data.

leucaemia L1210 [6] = experiment: Antitumor effect at animals with leucaemia L1210, continual regimen (Example 7); format: in vivo, mice DBA2; conditions: for Survival (in % of control) / Survival time, Geom. mean: 1th-9th day; for Evaluation of antitumor effect (survival time versus control), in words / Increase of survival time value in comparison with the control group: in the dosages used, p.o.×9
[7] = tested on: ascitic form of Ehrlich tumor (ATE); experiment: Antitumor effect at animals with ascitic form of Ehrlich tumor (ATE) (Example 10); format: in vivo, mice ICR; conditions: for Survival (in % of control) / Survival time, Geom. mean / Tumor mass (%) of control / Tumor mass, Arithm. mean: 1st-9th day; for Tumor mass (%) of control / Tumor mass, Arithm. mean: dissection 10th day
[8] = 3 mg/kg/day p.o. 9x, 5th-13 day
[9] = 6 mg/kg/day p.o. 9x, 5th-13 day
[10] = 12 mg/kg/day p.o. 9x, 5th-13 day
[11] = 9 mg/kg/day p.o. 3x, 1,5,9th day (lowest dose group)
[12] = 12 mg/kg/day p.o. 9x, 1-9th day
[13] = 18 mg/kg/day p.o. 3x, 1,5,9th day
[14] = 36 mg/kg/day p.o. 3x, 1,5,9th day

CC(=O)[O-].CC(=O)[O-].N.NC12CC3CC(CC(C3)C1)C2.[Cl-].[Cl-].[Pt+4] [LA-12, Af-bis (Acetato)-b-(1-Adamantylamine)-c-ammin-de-dichloroplatinum (IV) Complex]
Survival (in % of control) (leucaemia L1210 [1]; 2 mg/kg/day p.o. 3x): >121% | Survival time, Geom. mean (leucaemia L1210 [1]; 2 mg/kg/day p.o. 3x): 19.0 days | Survival (in % of control) (leucaemia L1210 [1]; 4 mg/kg/day p.o. 3x): 147% | Survival time, Geom. mean (leucaemia L1210 [1]; 4 mg/kg/day p.o. 3x): 23.0 days | Survival (in % of control) (leucaemia L1210 [1]; 4 mg/kg/day p.o. 3x, listed as LA-] 2): 148% | Survival (in % of control) (leucaemia L1210 [1]; 8 mg/kg/day p.o. 3x): 118% | Survival time, Geom. mean (leucaemia L1210 [1]; 8 mg/kg/day p.o. 3x): 18.5 days | Optimum dose as calculated according to Carter (leucaemia L1210 [1]; intermitent oral administration 3x): 4.55 mg/kg/day p.o.×3 | Tumor mass (%) of control [2, 8]: 86% | Tumor mass, Arithm. mean [2, 8]: 4.02 g | Tumor mass (%) of control [2, 9]: 80% | Tumor mass, Arithm. mean [2, 9]: 3.73 g | Tumor mass (%) of control [2, 10]: 87% | Tumor mass, Arithm. mean [2, 10]: 4.05 g | Survival (in % of control) ([2]; mouse, in vivo): 116% and 117% | Survival time, Geom. mean ([2]; mouse, in vivo): 25.1 days and 25.3 days and 27.7 days | Evaluation of antitumor effect, in words ([2]; p.o.×9 12, 6, 3 mg/kg/day, Platidiam 8 and 4 mg/kg s.c. once): antitumor effective | Survival (in % of control) (leucaemia L1210 [3]; 3 mg/kg/day p.o. 9x, 1-9th day): 96% | Survival time, Geom. mean (leucaemia L1210 [3]; 3 mg/kg/day p.o. 9x, 1-9th day): 11.1 days | Increase of survival time value in comparison with the control group (leucaemia L1210 [3]; 6 mg/kg p.o.×9): 130% | Survival (in % of control) (leucaemia L1210 [3]; 6 mg/kg/day p.o. 9x, 1-9th day): 230% | Survival time, Geom. mean (leucaemia L1210 [3]; 6 mg/kg/day p.o. 9x, 1-9th day): 16.6 days | Survival (in % of control) (leucaemia L1210 [3]; [11]): 115% | Survival time, Geom. mean (leucaemia L1210 [3]; [11]): 13.3 days | Survival (in % of control) (leucaemia L1210 [3]; [12]): 118% | Survival time, Geom. mean (leucaemia L1210 [3]; [12]): 13.6 days | Survival (in % of control) (leucaemia L1210 [3]; [13]): 158% | Survival time, Geom. mean (leucaemia L1210 [3]; [13]): 18.3 days | Survival (in % of control) (leucaemia L1210 [3]; [14]): 137% | Survival time, Geom. mean (leucaemia L1210 [3]; [14]): 15.9 days | Evaluation of antitumor effect (survival time versus control), in words (leucaemia L1210 [3]; LA-12 6 mg/kg p.o.×9, Platidiam 8 and 4 mg/kg s.c.×1, LA-2 any of the dosage groups): antitumor effective | Tumor mass (%) of control (Gardner lymphosarcoma; 2 mg/kg p.o. 1x): 80% | Tumor mass, Arithm. mean (Gardner lymphosarcoma; 2 mg/kg p.o. 1x): 5.02 g | Tumor mass (%) of control (Gardner lymphosarcoma; 8 mg/kg p.o. 1x): 88% | Tumor mass, Arithm. mean (Gardner lymphosarcoma; 8 mg/kg p.o. 1x): 5.46 g | Tumor mass (%) of control (Gardner lymphosarcoma; 32 mg/kg p.o. 1x): 77% | Tumor mass, Arithm. mean (Gardner lymphosarcoma; 32 mg/kg p.o. 1x): 4.80 g | Increase of mean value of survival time in comparison with the untreated control group (leucaemia L1210 [4]): 55% | Survival (in % of control) ([5]; 3 mg/kg/day p.o. 9x): 143% | Survival time, Geom. mean ([5]; 3 mg/kg/day p.o. 9x): 12.7 days | Total ascitocrit (%) of control ([5]; 3 mg/kg/day p.o. 9x): 100% | Total ascitocrit (mass of cell fraction of a tumor), Arithm. mean ([5]; 3 mg/kg/day p.o. 9x): 0.68 g | Tumor mass (%) of control ([5]; 3 mg/kg/day p.o. 9x): 110% | Tumor mass, Arithm. mean ([5]; 3 mg/kg/day p.o. 9x): 4.32 g | Survival (in % of control) ([5]; 6 mg/kg/day p.o. 9x): 153% | Survival time, Geom. mean ([5]; 6 mg/kg/day p.o. 9x): 13.6 days | Total ascitocrit (%) of control ([5]; 6 mg/kg/day p.o. 9x): 99% | Total ascitocrit (mass of cell fraction of a tumor), Arithm. mean ([5]; 6 mg/kg/day p.o. 9x): 0.68 g | Tumor mass (%) of control ([5]; 6 mg/kg/day p.o. 9x): 78% | Tumor mass, Arithm. mean ([5]; 6 mg/kg/day p.o. 9x): 3.07 g | Survival (in % of control) ([5]; 12 mg/kg/day p.o. 9x): 134% | Survival time, Geom. mean ([5]; 12 mg/kg/day p.o. 9x): 11.9 days | Total ascitocrit (%) of control ([5]; 12 mg/kg/day p.o. 9x): 64% | Total ascitocrit (mass of cell fraction of a tumor), Arithm. mean ([5]; 12 mg/kg/day p.o. 9x): 0.44 g | Tumor mass (%) of control ([5]; 12 mg/kg/day p.o. 9x): 47% | Tumor mass, Arithm. mean ([5]; 12 mg/kg/day p.o. 9x): 1.86 g | Evaluation of antitumor effect (survival time versus control), in words [5]: didnot increase the survival time statistically significant | Survival (in % of control) (leucaemia L1210 [6]; 3 mg/kg/day p.o. 9x): 198% | Survival time, Geom. mean (leucaemia L1210 [6]; 3 mg/kg/day p.o. 9x): 44.6 days | Survival (in % of control) (leucaemia L1210 [6]; 6 mg/kg/day p.o. 9x): 172% | Survival time, Geom. mean (leucaemia L1210 [6]; 6 mg/kg/day p.o. 9x): 38.8 days | Survival (in % of control) (leucaemia L1210 [6]; 12 mg/kg/day p.o. 9x): 210% | Survival time, Geom. mean (leucaemia L1210 [6]; 12 mg/kg/day p.o. 9x): 47.2 days | Evaluation of antitumor effect (survival time versus control), in words (leucaemia L1210 [6]): antitumor effective | Increase of survival time value in comparison with the control group (leucaemia L1210 [6]): 130% | Survival (in % of control) ([7]; 3 mg/kg/day p.o. 9x): 157% | Survival time, Geom. mean ([7]; 3 mg/kg/day p.o. 9x): 18.0 days | Tumor mass (%) of control ([7]; 3 mg/kg/day p.o. 9x): 104% | Tumor mass, Arithm. mean ([7]; 3 mg/kg/day p.o. 9x): 2.76 g | Survival (in % of control) ([7]; 6 mg/kg/day p.o. 9x): 219% | Survival time, Geom. mean ([7]; 6 mg/kg/day p.o. 9x): 25.1 days | Tumor mass (%) of control ([7]; 6 mg/kg/day p.o. 9x): 100% | Tumor mass, Arithm. mean ([7]; 6 mg/kg/day p.o. 9x): 2.66 g | Survival (in % of control) ([7]; 12 mg/kg/day p.o. 9x): 135% | Survival time, Geom. mean ([7]; 12 mg/kg/day p.o. 9x): 15.5 days | Tumor mass (%) of control ([7]; 12 mg/kg/day p.o. 9x): 84% | Tumor mass, Arithm. mean ([7]; 12 mg/kg/day p.o. 9x): 2.23 g | Significance of mean survival time increase in comparison with untreated control (p≦0.01), in words ([7]; Tab. 7-2): atatistically highly significant

CC(=O)[O][Pt]([NH2])([Cl])([Cl])([NH]C12CC3CC(C)(CC(C)(C3)C1)C2)[O]C(C)=O [LA-15, af-bis(Acetato)-b-(1amino-3.5-dimethyladamantane)-c-ammin-de-dichloroplatinum (IV) Complex]
Survival (in % of control) [2, 8]: 117% | Survival time, Geom. mean [2, 8]: 25.4 days | Tumor mass (%) of control [2, 8]: 90% | Tumor mass, Arithm. mean [2, 8]: 4.19 g | Survival (in % of control) [2, 9]: 127% | Survival time, Geom. mean [2, 9]: 27.6 days | Tumor mass (%) of control [2, 9]: 85% | Tumor mass, Arithm. mean [2, 9]: 3.95 g | Survival (in % of control) [2, 10]: 118% | Survival time, Geom. mean [2, 10]: 25.5 days | Tumor mass (%) of control [2, 10]: 80% | Tumor mass, Arithm. mean [2, 10]: 3.74 g | Survival (in % of control) ([5]; 3 mg/kg/day p.o. 9x): 99% | Survival time, Geom. mean ([5]; 3 mg/kg/day p.o. 9x): 8.8 days | Total ascitocrit (%) of control ([5]; 3 mg/kg/day p.o. 9x): 123% | Total ascitocrit (mass of cell fraction of a tumor), Arithm. mean ([5]; 3 mg/kg/day p.o. 9x): 0.84 g | Tumor mass (%) of control ([5]; 3 mg/kg/day p.o. 9x): 89% | Tumor mass, Arithm. mean ([5]; 3 mg/kg/day p.o. 9x): 3.51 g | Survival (in % of control) ([5]; 6 mg/kg/day p.o. 9x): 108% | Survival time, Geom. mean ([5]; 6 mg/kg/day p.o. 9x): 9.6 days | Total ascitocrit (%) of control ([5]; 6 mg/kg/day p.o. 9x): 59% | Total ascitocrit (mass of cell fraction of a tumor), Arithm. mean ([5]; 6 mg/kg/day p.o. 9x): 0.40 g | Tumor mass (%) of control ([5]; 6 mg/kg/day p.o. 9x): 53% | Tumor mass, Arithm. mean ([5]; 6 mg/kg/day p.o. 9x): 2.08 g | Mean value of the mass of cell fraction of the tumor (total ascitocrit) versus control, in words ([5]; 6 mg/kg/day p.o.×9): statistically significant lower | Survival (in % of control) ([5]; 12 mg/kg/day p.o. 9x): 97% | Survival time, Geom. mean ([5]; 12 mg/kg/day p.o. 9x): 8.6 days | Total ascitocrit (%) of control ([5]; 12 mg/kg/day p.o. 9x): 120% | Total ascitocrit (mass of cell fraction of a tumor), Arithm. mean ([5]; 12 mg/kg/day p.o. 9x): 0.82 g | Tumor mass (%) of control ([5]; 12 mg/kg/day p.o. 9x): 96% | Tumor mass, Arithm. mean ([5]; 12 mg/kg/day p.o. 9x): 3.77 g | Evaluation of antitumor effect (survival time versus control), in words [5]: didnot increase the survival time statistically significant | Survival (in % of control) (leucaemia L1210 [6]; 3 mg/kg/day p.o. 9x): 180% | Survival time, Geom. mean (leucaemia L1210 [6]; 3 mg/kg/day p.o. 9x): 40.5 days | Survival (in % of control) (leucaemia L1210 [6]; 6 mg/kg/day p.o. 9x): 217% | Survival time, Geom. mean (leucaemia L1210 [6]; 6 mg/kg/day p.o. 9x): 48.8 days | Survival (in % of control) (leucaemia L1210 [6]; 12 mg/kg/day p.o. 9x): 130% | Survival time, Geom. mean (leucaemia L1210 [6]; 12 mg/kg/day p.o. 9x): 29.3 days | Evaluation of antitumor effect (survival time versus control), in words (leucaemia L1210 [6]): antitumor effective | Increase of survival time value in comparison with the control group (leucaemia L1210 [6]): 130%
